Earlier results, collected in patent US9884123B2, “Ligand-targeted molecules and methods thereof” (INVICTUS ONCOLOGY PVT. LTD., priority 2012, dated 2018).

test system: MDR cells; conditions: not given

Q: Which “Remarks: active against MDR cells too” value does the source give for CC(=O)O[C@@H](C)/C=C\C(=O)N[C@@H]1C[C@H](C)[C@H](C/C=C(C)/C=C/[C@H]2OC(C)(C)C[C@@]3(CO3)[C@@H]2O)O[C@@H]1C [Meamycin] here?
A: Its value is “Active”.

Q: With Epothilones A and B as the molecule, how does the “Remarks: active against MDR cells too” value read?
A: The value was “Active”.

test system: not given; conditions: Table 1, numeric value; test system not given; read-out: IC50

Q: With Cc1c[nH]c2c1[C@@]13C[C@@H]1CN(C(=O)c1cc4cc(NC(=O)c5cc6ccccc6o5)ccc4[nH]1)C3=CC2=O [Adozelesin (DC1), Adozelesin] as the molecule, how does the IC50 read?
A: The IC50 was 0.02 nM.

same assay, conditions: Table 1, order of magnitude in words; test system not given

Q: Which IC50 does the source give for C=C1C[C@H](C)C[C@@H]2CC=C[C@@H](C/C=C\C(=O)O[C@H]([C@@H](O)/C=C/[C@@H]3CC(C)=CCO3)C[C@@H]3O[C@H]3[C@@H](O)C1)O2 [Laulimalide] here?
A: The IC50 was “Low nM”.

Q: For CC(=O)O[C@@H](C)/C=C\C(=O)N[C@@H]1C[C@H](C)[C@H](C/C=C(C)/C=C/[C@H]2OC(C)(C)C[C@@]3(CO3)[C@@H]2O)O[C@@H]1C [Meamycin], which IC50 is on record?
A: The IC50 was “picomolar”.

Q: With COc1cccc2c1C(=O)c1c(O)c3c(c(O)c1C2=O)C[C@@](O)(C(=O)CO)C[C@@H]3O[C@H]1C[C@H](N)[C@H](O)[C@H](C)O1 [Doxorubucin] as the molecule, how does the IC50 read?
A: Its IC50 is “High nM”.

Q: For CC[C@@H](/C=C(/C)[C@H]1C[C@H](OC)C[C@@H](O)C(C)(C)[C@]2(O)O[C@H](C[C@H](OC)[C@@H](O)C(=O)O1)C[C@H](OC)[C@@H]2O)CO [Peloruside A], which IC50 is on record?
A: Its IC50 is “Low nM”.

Q: For “Maytansinoid [Maytansinoid (DM1 and DM4)]”, which IC50 is on record?
A: Its IC50 is “nM to”.

Q: For Auristatins E and F, which IC50 is on record?
A: The IC50 was “nM to”.

Q: Which IC50 does the source give for CCCCCCC[C@H](O)CC[C@H](O)[C@H]1CC[C@H]([C@H]2CC[C@H]([C@H](O)CCCCCCCCCC[C@@H](O)CC3=C[C@H](C)OC3=O)O2)O1 [27-hydroxybullatacin] here?
A: Its IC50 is “Low pM”.

Q: Which IC50 does the source give for COc1c(O)c2c(c3cc(C(=O)N4CCc5c4c(O)c(OC)c4[nH]c(C(=O)N6CC7CC78C6=CC(=O)c6[nH]cc(C)c68)cc54)[nH]c13)CCN2C(N)=O (stereo not shown) [CC-1065] here?
A: The IC50 was “nM to”.

Q: For Calicheamicins, which IC50 is on record?
A: The IC50 was “Picomolar”.

Q: For COc1cc([C@@H]2c3cc4c(cc3[C@@H](O[C@@H]3O[C@@H]5CO[C@@H](c6cccs6)O[C@H]5[C@H](O)[C@H]3O)[C@H]3COC(=O)[C@H]23)OCO4)cc(OC)c1O [Teniposide], which IC50 is on record?
A: Its IC50 is “Low nM”.
